In brackets after ≈: the same amount, converted by molar mass.
Columns and labels:
in vivo = assay: in vivo; parameters: species or system Mice; conditions: mouse, inhaled or intranasal
Description: Mice (Charles River, Female CD-1, 20-23 g) were permitted water and food ad libitum during the experiment. Clofoctol was administrated by Nose-Only inhalation in a homemade inhalation chamber in part inspired by a previous described apparatus (ref. 6). Animals were acclimated to restraint during a week before the experiment started. Animals were exposed to an aerosol generated (using a TAG connected to the chamber: Vaporesso swag 2 with a coil resistance of 0.3 ohms) from a solution of 20 mg/g of clofoctol ([…]/Glycerin, 85/15) for a period of 15 min with a puff of 4.5 s every minute (with a power of 30W).
Blood and lungs (left lung) were sampled 5, 10, 15, 30, 60 and 120 minutes after the end of a single inhalation period (2 mice/sampling time). The blood was sampled in tubes with Lithium Heparin on ice and then the plasma was separated from the red cells by centrifugation and frozen (-80°C).
A known mass (approximately 15mg, weighed beforehand) of each lung was placed into a 'safe lock' microtube (2 mL). […]
The unknown lung concentrations of clofoctol were calculated from a calibration line produced in the same matrix (naive lung from 'vehicle' animals) and reprocessed in the same way as the samples (homogenization in ethanol).

physchem = type: physicochemical; conditions: for solubility at 48 h / solubility at 120 h: organic solvent or mixture
Description: Solutions of clofoctol were prepared in different solvents: 100% PG, 85/15 PG/Gly, 70/30 PG/Gly, 50/50 PG/Gly. Solutions were sonicated then incubated at 65°C for 30 min, until complete dissolution of clofoctol. Then, the samples were incubated at RT under stirring for different times. For collection before analysis after determined incubation times, the solutions were centrifuged, then the supernatants were collected and diluted before LC-MS/MS analysis for clofoctol quantitation in samples.

[1] = characterization of aerosol particles by laser light scattering (Malvern Mastersizer X); type: physicochemical; conditions: air flow 20L/min
Description: The "median diameter" (D(v;0.5)) of an aerosol refers to the diameter for which half the particulate mass of the aerosol consists of particles with a diameter larger than the median diameter and half by particles with a diameter smaller than the median diameter. The median diameter is measured by laser light scattering using for example a Malvern Mastersizer X or any equivalent apparatus working on the same principle of laser light scattering.
The "span" of a volume-based size distribution is defined by Span = (D(v;0.9) - D(v;0.1)) / D(v;0.5) and gives an indication of how far the 10 percent and 90 percent points are apart, normalized by the midpoint.
The "volume concentration" is the volume of particles reported to the total volume of the aerosol expressed as a percentage. The volume concentration is measured by laser light scattering using for example a Malvern Mastersizer X or any equivalent apparatus working on the same principle of laser light scattering.
Solutions containing 10 mg/g or 20 mg/g of clofoctol in various solvents were prepared. Aerosols were produced using a TAG (Vaporesso swag 2 with a coil resistance of 0.3 ohms) at different powers. The flow of aerosol was generated using an air flow of 20L/min. A certain volume of emitted aerosol was passed through the laser beam of a granulometer, Mastersizer X from Malvern.

[2] = aerosol drug mass density (TAG aerosol trapped on filter, LC-MS); type: physicochemical; conditions: airflow 34 L per minute; for Collected mass of clofoctol in the trap: 1.416 L aerosol trapped
Description: The term "aerosol" refers to a suspension of fine solid particles or liquid droplets in a gas. The expression "(aerosol) drug mass density" refers to the mass of clofoctol per unit volume of aerosol. It is calculated by measuring the quantity of clofoctol in a determined volume of aerosol beforehand trapped.
(§1) The purity of a clofoctol-containing aerosol, and quantitation of clofoctol in this aerosol was determined using a method that involves forming the aerosol in a device through which an air flow is maintained, generally at a rate between 1 and 180 L/min. The gas flow carries the aerosol into one or more traps. After extraction from the trap, the trapped components from the aerosol are subjected to an analytical technique, such as liquid chromatography, that permits a determination of composition and purity. The liquid chromatography discussed above contains a detection system (i.e., detector). Such detection systems are well known in the art and include, for example, UV detectors and mass spectrometry detectors. Liquid chromatography-mass spectrometry is the preferred analytical technique.
Solutions containing 20 mg/g of clofoctol in various solvents were prepared. Aerosols were produced using a TAG (Vaporesso swag 2 with a coil resistance of 0.3 ohms) at different powers and an airflow of 34 L per minute. 1.416 L of emitted aerosol was trapped on a plastic filter. Clofoctol was then extracted from the filter and dosed by LC-MS to determine the drug mass density.

[3] = clofoctol purity in the aerosol after thermal aerosol generation (LC-UV-MS); type: physicochemical; conditions: for Mean purity: mean of puffs 1 and 2
Description: as §1
Solutions containing 20 mg/g of clofoctol in various solvents were prepared. Aerosols were produced using a TAG (Vaporesso swag 2 with a coil resistance of 0.3 ohms) at different powers. The flow of aerosol was generated using an air flow of 20 L/min. One or two successive puffs of 2.5s each was (were) done for each condition. For each puff, a certain volume of emitted aerosol was trapped on a plastic filter. Clofoctol was then extracted from the filter and analysed by LC-UV-MS.

[4] = aerosol from 10 mg/g CFT in 85/15 PG/Gly, power 30 W
[5] = aerosol from 10 mg/g CFT in 85/15 PG/Gly, power 45 W
[6] = aerosol from 10 mg/g CFT in 85/15 PG/Gly, power 60 W
[7] = aerosol from 20 mg/g CFT in 70/30 PG/Gly, power 30 W
[8] = aerosol from 20 mg/g CFT in 85/15 PG/Gly, power 30 W
[9] = aerosol from 20 mg/g CFT in 100% PG, power 30 W
[10] = 20 mg/g clofoctol in 70/30 PG/Gly, TAG power 30 W
[11] = 20 mg/g clofoctol in 85/15 PG/Gly, TAG power 30 W
[12] = 20 mg/g clofoctol in 85/15 PG/Gly, TAG power 50 W
[13] = 20 mg/g clofoctol in 85/15 PG/Gly, TAG power 80 W
[14] = 20 mg/g clofoctol in 100% PG, TAG power 30 W

CC(C)(C)CC(C)(C)c1ccc(O)c(Cc2ccc(Cl)cc2Cl)c1 [clofoctol, 2-[(2,4-dichlorophenyl)methyl]-4-(2,4,4-trimethylpentan-2-yl)phenol]
Tmax (in vivo): ≤ 5 min
solubility at 48 h (physchem; 50/50 pg/gly): 7.9 mM (≈ 2.89 mg/mL)
solubility at 120 h (physchem; 50/50 pg/gly): 6.7 mM (≈ 2.45 mg/mL)
solubility at 48 h (physchem; 70/30 pg/gly): 29.8 mM (≈ 10.9 mg/mL)
solubility at 120 h (physchem; 70/30 pg/gly): 28.1 mM (≈ 10.3 mg/mL)
solubility at 48 h (physchem; 85/15 pg/gly): 504 mM (≈ 184 mg/mL)
solubility at 120 h (physchem; 85/15 pg/gly): 147 mM (≈ 53.6 mg/mL)
solubility at 48 h (physchem; 100% pg): 489 mM (≈ 179 mg/mL)
solubility at 120 h (physchem; 100% pg): 441 mM (≈ 161 mg/mL)
maximum concentration achieved (physchem; 7200 min): about 15 % by weight
Mean diameter [1, 4]: 2.45 µm
Median diameter [1, 4]: 2.42 µm
Sauter diameter [1, 4]: 2.34 µm
Span [1, 4]: 0.519
Volume conc. [1, 4]: 0.0052%
Mean diameter [1, 5]: 2.40 µm
Median diameter [1, 5]: 2.38 µm
Sauter diameter [1, 5]: 2.30 µm
Span [1, 5]: 0.523
Volume conc. [1, 5]: 0.0027%
Mean diameter [1, 6]: 2.63 µm
Median diameter [1, 6]: 2.59 µm
Sauter diameter [1, 6]: 2.46 µm
Span [1, 6]: 0.635
Volume conc. [1, 6]: 0.0018%
Mean diameter [1, 7]: 2.89 µm
Median diameter [1, 7]: 2.87 µm
Sauter diameter [1, 7]: 2.76 µm
Span [1, 7]: 0.551
Volume conc. [1, 7]: 0.0020%
Mean diameter [1, 8]: 2.41 µm
Median diameter [1, 8]: 2.38 µm
Sauter diameter [1, 8]: 2.30 µm
Span [1, 8]: 0.543
Volume conc. [1, 8]: 0.0016%
Mean diameter [1, 9]: 2.78 µm
Median diameter [1, 9]: 2.75 µm
Sauter diameter [1, 9]: 2.66 µm
Span [1, 9]: 0.521
Volume conc. [1, 9]: 0.0038%
Drug mass density [2, 10]: 0.091 mg/L
Collected mass of clofoctol in the trap [2, 10]: 128.3 µg
Drug mass density [2, 11]: 0.096 mg/L
Collected mass of clofoctol in the trap [2, 11]: 135.8 µg
Drug mass density [2, 12]: 0.099 mg/L
Collected mass of clofoctol in the trap [2, 12]: 141.1 µg
Drug mass density [2, 13]: 0.071 mg/L
Collected mass of clofoctol in the trap [2, 13]: 100.5 µg
Drug mass density [2, 14]: 0.159 mg/L
Collected mass of clofoctol in the trap [2, 14]: 225.6 µg
Mean purity ([3]; aerosol from 20 mg/g clofoctol in 70/30 PG/Gly, power 30 W): 100.0%
Purity CFT ([3]; aerosol from 20 mg/g clofoctol in 70/30 PG/Gly, power 30 W, puff number 1): 100.0%
Purity CFT ([3]; aerosol from 20 mg/g clofoctol in 70/30 PG/Gly, power 30 W, puff number 2): 100.0%
Mean purity ([3]; aerosol from 20 mg/g clofoctol in 70/30 PG/Gly, power 80 W): 91.0%
Purity CFT ([3]; aerosol from 20 mg/g clofoctol in 70/30 PG/Gly, power 80 W, puff number 1): 91.4%
Purity CFT ([3]; aerosol from 20 mg/g clofoctol in 70/30 PG/Gly, power 80 W, puff number 2): 90.6%
Mean purity ([3]; aerosol from 20 mg/g clofoctol in 100% PG, power 30 W): 100.0%
Purity CFT ([3]; aerosol from 20 mg/g clofoctol in 100% PG, power 30 W, puff number 1): 100.0%
Purity CFT ([3]; aerosol from 20 mg/g clofoctol in 100% PG, power 30 W, puff number 2): 100.0%
Mean purity ([3]; aerosol from 20 mg/g clofoctol in 100% PG, power 80 W): 87.4%
Purity CFT ([3]; aerosol from 20 mg/g clofoctol in 100% PG, power 80 W, puff number 1): 92.0%
Purity CFT ([3]; aerosol from 20 mg/g clofoctol in 100% PG, power 80 W, puff number 2): 82.7%

Source: patent EP4238553A1, “COMPOSITIONS AND METHODS FOR DELIVERING CLOFOCTOL” (priority 2022, dated 2023)
